According to patent US6303591A, “21-hydroxy-6,19-oxidoprogesterone (21OH-6OP) and its use as medicament for treating excess of glucocorticoids” (Applied Research Systems ARS Holding NV, priority 1997, dated 2001):

Tests used:
[1] = tested on: MR; conditions: background; cited from earlier work
[2] = tested on: GR; conditions: background; cited from earlier work
[3] = target: T1, uterus PR (progesterone receptor) (Rattus norvegicus, UniProt Q63449); assay: (^3 H)-P4 binding to uterus cytosols (PR); conditions: uterus cytosol, 12 h at 0° C., 1 μM cortisol
T1 sequence (Q63449 1-923): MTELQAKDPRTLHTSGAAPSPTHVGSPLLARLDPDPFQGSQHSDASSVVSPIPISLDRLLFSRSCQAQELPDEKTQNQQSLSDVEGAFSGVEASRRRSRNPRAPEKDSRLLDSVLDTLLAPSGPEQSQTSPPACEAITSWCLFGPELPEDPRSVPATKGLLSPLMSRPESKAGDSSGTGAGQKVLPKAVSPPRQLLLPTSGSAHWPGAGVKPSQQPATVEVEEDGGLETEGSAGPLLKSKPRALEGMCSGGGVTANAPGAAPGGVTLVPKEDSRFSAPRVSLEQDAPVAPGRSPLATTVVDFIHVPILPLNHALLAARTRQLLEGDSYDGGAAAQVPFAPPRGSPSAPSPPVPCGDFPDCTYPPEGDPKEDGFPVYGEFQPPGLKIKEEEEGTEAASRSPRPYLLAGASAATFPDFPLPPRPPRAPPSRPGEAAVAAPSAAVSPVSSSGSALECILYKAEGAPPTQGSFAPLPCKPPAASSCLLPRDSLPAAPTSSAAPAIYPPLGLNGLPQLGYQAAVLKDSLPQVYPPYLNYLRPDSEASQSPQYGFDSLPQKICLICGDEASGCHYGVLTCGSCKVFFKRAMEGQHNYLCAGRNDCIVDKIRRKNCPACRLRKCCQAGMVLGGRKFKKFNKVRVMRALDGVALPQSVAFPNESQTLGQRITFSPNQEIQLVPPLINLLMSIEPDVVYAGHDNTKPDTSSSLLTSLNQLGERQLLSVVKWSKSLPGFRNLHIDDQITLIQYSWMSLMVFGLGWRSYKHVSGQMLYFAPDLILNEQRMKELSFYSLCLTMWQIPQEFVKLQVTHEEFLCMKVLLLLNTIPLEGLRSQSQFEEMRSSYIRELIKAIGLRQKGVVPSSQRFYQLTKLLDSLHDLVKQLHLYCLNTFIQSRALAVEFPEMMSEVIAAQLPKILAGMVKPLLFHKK
Procedure: Binding Assay: Adrenalectomized male Sprague-Dawley rats were bled to death by heart puncture. Cold 0.9% NaCI was injected profusely through the aorta until organs were completely blanched. Thymuses were used as a source of GR and kidneys as a source of MR. Homogenization and incubation conditions were performed as previously described, (14) and (15), respectively. Briefly, homogenates performed in cold TEGM buffer at pH 7.4 (0.1 M Tris-HCl, 10 mM EDTA, 10 mM α-mercaptoethanol, 20 mM Na2 MoO4, 25% glycerol, 0.1 mM PMSF, 2.0 TIU/ml aprotinin and 1 mg% Leupeptin) were centrifuged at 37,000 rev. for 30 min at 0° C. Supernatants from this centrifugation are referred to as "cytosol". […] (^3 H)-P4 binding to uterus PR was assayed on immature female rats according to Jordan et al (16).
Relative binding affinity (RBA) for partially purified CBG was determined by steroid competition for (^3 H)-B binding as described previously (14).

## CC(=O)[C@H]1CC[C@H]2[C@@H]3CCC4=CC(=O)CC[C@]4(C)[C@H]3CC[C@]12C [P4, progesterone]
[1]
  cross-reaction with MR: exhibits cross-reaction with both MR and GR
[2]
  cross-reaction with GR: exhibits cross-reaction with both MR and GR
[3]
  displacement of (^3 H)-P4 from uterus receptors / cross-reaction with PR: able to displace the tracer efficiently
